This is an account of results in PMC12350126, “A novel carboxamide bromodomain inhibitor attenuates osteoarthritis via epigenetic repression of NF-κB and MAPK signaling” (Frontiers in Immunology, 2025).

One data set concerns the target T1, BRD2 BD1 (Homo sapiens, UniProt P25440).
T1 construct: biotinylated BRD2 BD1; biotin (biotinylated protein); made in house; host or cells: Escherichia coli BL21(DE3)
As to the kind of experiment: Biosensor binding kinetics assay (Octet), BRD2 BD1. The protocol:
(§1) Binding kinetics were assessed using the Octet® R2 system (Sartorius, Göttingen, Germany). Superstreptavidin biosensors were loaded with biotinylated BRD2 BD1, BRD2 BD2, BRD3 BD1, BRD3 BD2, BRD4 BD1, BRD4 BD2, or biotin alone (as a negative control) in PBST buffer (phosphate-buffered saline containing 0.02% Tween 20 and 5% DMSO). The sensors were then dipped into compound solutions for 10 min. To evaluate association kinetics (kon), each sensor was exposed to serial dilutions of the protein for 180 s, followed by dipping them into PBST buffer to assess dissociation kinetics (koff). For control, a separate sensor loaded with the compound was dipped into PBST alone. Competition binding assays were performed by exposing the compound-loaded sensor to mixtures of proteins and test compounds.
(BLI is a label-free optical method that tracks binding on a fibre tip over time.)

The test system of data set [1] is IL-1β-induced Mmp3, Mmp13 and Cox2 expression in mouse articular chondrocytes. As to the kind of experiment: IL-1β-induced Mmp3, Mmp13, Cox2 expression in chondrocytes (qRT-PCR, western blotting). The format is cell-based. The conditions noted are these: IL-1β 1 ng/mL. The protocol: NCD was supplied by Benobio Co (Gyeonggi-do, Korea), and IL‐1β was purchased from GenScript (Piscataway, NJ, USA). NCDs were dissolved in phosphate-buffered saline (PBS) for oral administration or IA injection.
Total RNA was extracted from mouse articular chondrocytes using TRIzol (Molecular Research Center Inc., Cincinnati, OH, USA) and the primers used were for the MMPs, glyceraldehyde 3-phosphate dehydrogenase (GAPDH), and Cox2. Primers utilized were as follows: mouse Mmp3 (5′-TCCTGATGTTGGTGGCTTCAG-3′ and 5′-TGTCTTGGCAAATCCGGTGTA-3′); mouse Mmp13 (5′-TGATGGACCTTCTGGTCTTCTGG-3′ and 5′-CATCCA CATGG TTGGG AAGT TCT-3′); mouse Cox2 (5′-GGTCTGGTGCCTGGTCTGATGAT-3′ and 5′-GTCCTTTCAAGGAGAATGGTGC-3′); mouse Gapdh (5′-TCACT GCCAC CCAGA AGAC-3′ and 5′-TGTAG GCCAT GAGGT CCAC-3′). Gene transcript expression levels were normalized against that of Gapdh by qRT-PCR using SYBR premix ExTaq (Takara Bio, Shiga, Japan). Results were expressed as fold-changes relative to the expression in the control group ([20]).
The total protein was extracted from the primary cultured chondrocytes using a lysis buffer, containing 150 mM NaCl, 1% NP-40, 50 mM Tris/HCl (pH 8.0), 0.2% sodium dodecyl sulfate, and 5 mM NaF, supplemented with protease and phosphatase inhibitor mixture (Roche, Madison, WI, USA). Proteins were separated using sodium dodecyl sulfate-polyacrylamide gel electrophoresis, and western blot analysis was performed using the following antibodies: goat anti‐Cox2 (sc‐1745; Santa Cruz Biotechnology, Dallas, TX, USA), mouse anti-Erk1/2 (610408; Becton Dickinson, NJ, USA), mouse anti-IκB [9242; Cell Signaling Technology (CST), MA, USA], mouse anti-p65 (8242; CST), mouse anti-phospho-p65 (3033; CST), mouse anti-p38 (#9212; CST), mouse anti-pp38 (#9215S; CST), mouse anti-c-Jun N-terminal kinase (Jnk) (#9252S; CST), mouse anti-pJnk (#9251S; CST), and mouse anti-pErk (#9101S; CST). Each signal was visualized using a SuperSignal West Dura Kit (Thermo Fisher Scientific, Waltham, MA, USA). Density analysis (AlphaEase FC 4.0; Alpha Innotech, CA, USA) was performed to calculate the relevant band intensities. Extracellular signal-regulated kinase (Erk) was used as the loading control ([28]).
(Quantitative PCR measures a nucleic acid by following its amplification.)

Data set [2] can be described thus: PK analysis after intravenous administration in SD rats. Set-up: AUC: unit not given here. The format is in vivo, rat. The following applies: for AUC(0-t) / Cmax / half-life: male, rat, plasma. The protocol:
SD rats (male, 6 weeks old) were obtained from Orient Bio (Seoul, Korea) and housed under pathogen-free conditions. All animal procedures were conducted in accordance with the guidelines of the Animal Care Facility at Biotoxtech Co., Ltd. (Chungcheongbuk-do, Korea). NCD was administered intravenously (IV) to SD rats at doses of 5, 10, or 20 mg/kg to evaluate its pharmacokinetics. Blood samples were collected from the jugular vein at various time points, mixed with 3.8% (w/v) sodium citrate, and centrifuged at 8,000 × g for 30 min to obtain plasma. The plasma samples were then mixed with acetonitrile (33%, v/v), vortexed for 5 min, and centrifuged at 13,000 × g for 10 min. The concentration of NCD in plasma was determined using high-performance liquid chromatography (HPLC; Shimadzu, Japan) equipped with a UV detector. Pharmacokinetic parameters were calculated using Microsoft Excel ([31]).

Another data set deals with T2, BRD4 BD1 (Homo sapiens, UniProt O60885).
T2 construct: BRD3 BD2, BRD4 BD1, BRD4 BD2; biotin (biotinylated protein); made in house; host or cells: Escherichia coli BL21(DE3)
As to the kind of experiment: Biosensor binding kinetics assay (Octet), BRD4 BD1. The protocol:
as §1

The mark [3] stands for this setting: NCD 10, 50, 100 µM, 12 h, qRT-PCR.

Some results are limits rather than exact numbers.

T1 sequence (P25440 74-180 limits assumed): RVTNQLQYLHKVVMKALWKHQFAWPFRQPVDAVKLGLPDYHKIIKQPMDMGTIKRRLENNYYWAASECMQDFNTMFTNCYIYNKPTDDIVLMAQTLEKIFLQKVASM

By Kd is commonly meant the constant that tells how readily two partners part at equilibrium. One may read the AUC(0-t) as the area under the concentration-time curve up to a stated or last time point. The Cmax is the highest concentration seen after dosing. As a reminder, the half-life is the time in which the quantity being followed falls by half. `CNC(=O)CC1C(=O)NCCN1Cc1ccc(-c2ccccc2-c2cccc3c2CN(C)C3=O)o1` (centres unmarked) [NCD, N-methyl-2-(1-((5-(2-(2-methyl-1-oxoisoindolin-4-yl)phenyl)furan-2-yl)methyl)-3-oxopiperazin-2-yl)acetamide]: the dissociation constant (Kd) at BRD2 BD1 was found to be 26 nM. In data set [1] (setting [3]), the “Cox2 mRNA expression” value was “marked, concentration-dependent suppression”; the “Mmp3 mRNA expression” value is recorded as “marked, concentration-dependent suppression”; the “Mmp13 mRNA expression” value is listed as “marked, concentration-dependent suppression”. In data set [1] (NCD 50 and 100 µM), the “mRNA and protein levels of Cox2” value is “substantially reduced”. Besides, in data set [2] (5 mg/kg), the AUC is listed as 631.83, the AUC(0-t) was 632 ng·h/mL, the Cmax turned out to be 1110 ng/mL and the half-life is 24.6 min. For the same molecule, in data set [2] (20 mg/kg), the AUC came to 4526.66, the AUC(0-t) stood at 4530 ng·h/mL, the Cmax was found to be 4150 ng/mL and the half-life is 45.6 min. Besides, in data set [2] (10 mg/kg), the AUC(0-t) stood at 1730 ng·h/mL, the peak level (Cmax) was 2560 ng/mL and the half-life was 35.4 min. On BRD4 BD1, this molecule had a Kd of over 1000 nM.
